From patent publication US11661421B2, “Indolizine compounds, preparation method and use thereof” (HAIHE BIOPHARMA CO., LTD., priority 2018, dated 2023)

The compounds below were run against T1, PRC2 complex (EZH2 Y641F/EED/SUZ12/RbAp48/AEBP2) histone methyltransferase (Homo sapiens, UniProt Q15910, Y641F) (assay: PRC2 complex (EZH2 Y641F) activity assay, HTRF). Settings: H3(1-50) K27me1 substrate, SAM, 4 h at room temperature, read-out: IC50 (EZH2_Y641F).
T1 construct: purchased Cisbio
Type: biochemical
Excerpt: PRC2 Complex (Ezh2y641f) Activity Assay of the Compounds:
Test Method: Homogeneous Time-Resolved Fluorescence (HTRF)
Materials: PRC2 complex (EZH2 Y641F/EED/SUZ12/RbAp48/AEBP2) histone methyltransferase used in the test was purchased from Cisbio; substrate H3(1-50) K27me1 was a product of GL Biochem; methyl donor S-(5′-Adenosyl)-L-methionine chloride dihydrochloride (SAM) was purchased from Sigma-aldrich; Eu-labeled H3K27me3, Streptavidin-XL665 and the buffer used in the test were purchased from Cisbio.
Experiment method: PRC2 complex (EZH2 Y641F/EED/SUZ12/RbAp48/AEBP2), H3(1-50)me1 substrate, methyl donor SAM and the test compound were added to each well to reach a total of 10 μL reaction system and reacted in dark at room temperature for 4h. 5 μL of Eu-labeled H3K27 Me3 antibody and 5 μL of Streptavidin-XL665 were added to each well, mixed uniformly, and incubated at room temperature for 1 h. The fluorescence values at 620 nm and 665 nm were measured with a multi-label microplate analysis system (PerkinElmer Envision), and the HTRF signal ratio (665 nm/620 nm) was calculated for each well. The IC50 values of the compounds were calculated using SoftMax Pro 5.4.1 software.

T1 sequence (Q15910 whole entry Y641F): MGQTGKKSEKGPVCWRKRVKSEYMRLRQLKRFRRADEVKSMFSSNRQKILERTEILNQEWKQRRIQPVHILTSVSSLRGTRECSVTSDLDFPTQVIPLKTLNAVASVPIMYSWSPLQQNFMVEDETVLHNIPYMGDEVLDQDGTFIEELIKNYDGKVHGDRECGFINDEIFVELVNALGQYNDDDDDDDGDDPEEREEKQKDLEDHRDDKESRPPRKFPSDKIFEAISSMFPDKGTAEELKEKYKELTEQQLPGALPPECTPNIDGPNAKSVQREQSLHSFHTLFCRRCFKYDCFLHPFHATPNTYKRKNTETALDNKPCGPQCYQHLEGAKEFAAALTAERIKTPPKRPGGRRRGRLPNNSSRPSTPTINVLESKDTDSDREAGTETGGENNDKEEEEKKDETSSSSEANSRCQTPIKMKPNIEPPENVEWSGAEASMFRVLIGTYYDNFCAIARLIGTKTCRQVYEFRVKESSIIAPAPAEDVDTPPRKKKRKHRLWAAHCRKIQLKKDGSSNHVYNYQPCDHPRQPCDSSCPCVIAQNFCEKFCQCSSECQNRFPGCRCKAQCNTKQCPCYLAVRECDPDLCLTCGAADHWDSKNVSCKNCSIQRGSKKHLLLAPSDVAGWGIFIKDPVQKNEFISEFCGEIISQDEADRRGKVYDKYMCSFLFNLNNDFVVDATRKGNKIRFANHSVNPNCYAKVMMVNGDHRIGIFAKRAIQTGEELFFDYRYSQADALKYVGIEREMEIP
T1 sequence (O75530 whole entry partner): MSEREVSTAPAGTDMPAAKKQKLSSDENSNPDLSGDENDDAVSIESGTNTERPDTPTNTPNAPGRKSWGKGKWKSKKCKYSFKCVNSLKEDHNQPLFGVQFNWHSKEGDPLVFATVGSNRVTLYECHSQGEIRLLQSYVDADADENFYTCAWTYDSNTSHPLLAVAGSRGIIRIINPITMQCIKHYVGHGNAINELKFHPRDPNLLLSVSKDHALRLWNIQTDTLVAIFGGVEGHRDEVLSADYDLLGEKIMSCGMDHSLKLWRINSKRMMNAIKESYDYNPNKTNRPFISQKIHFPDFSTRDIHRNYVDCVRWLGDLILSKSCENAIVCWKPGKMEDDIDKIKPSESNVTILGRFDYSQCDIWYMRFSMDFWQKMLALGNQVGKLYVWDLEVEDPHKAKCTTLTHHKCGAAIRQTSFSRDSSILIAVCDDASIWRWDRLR
T1 sequence (Q15022 whole entry partner): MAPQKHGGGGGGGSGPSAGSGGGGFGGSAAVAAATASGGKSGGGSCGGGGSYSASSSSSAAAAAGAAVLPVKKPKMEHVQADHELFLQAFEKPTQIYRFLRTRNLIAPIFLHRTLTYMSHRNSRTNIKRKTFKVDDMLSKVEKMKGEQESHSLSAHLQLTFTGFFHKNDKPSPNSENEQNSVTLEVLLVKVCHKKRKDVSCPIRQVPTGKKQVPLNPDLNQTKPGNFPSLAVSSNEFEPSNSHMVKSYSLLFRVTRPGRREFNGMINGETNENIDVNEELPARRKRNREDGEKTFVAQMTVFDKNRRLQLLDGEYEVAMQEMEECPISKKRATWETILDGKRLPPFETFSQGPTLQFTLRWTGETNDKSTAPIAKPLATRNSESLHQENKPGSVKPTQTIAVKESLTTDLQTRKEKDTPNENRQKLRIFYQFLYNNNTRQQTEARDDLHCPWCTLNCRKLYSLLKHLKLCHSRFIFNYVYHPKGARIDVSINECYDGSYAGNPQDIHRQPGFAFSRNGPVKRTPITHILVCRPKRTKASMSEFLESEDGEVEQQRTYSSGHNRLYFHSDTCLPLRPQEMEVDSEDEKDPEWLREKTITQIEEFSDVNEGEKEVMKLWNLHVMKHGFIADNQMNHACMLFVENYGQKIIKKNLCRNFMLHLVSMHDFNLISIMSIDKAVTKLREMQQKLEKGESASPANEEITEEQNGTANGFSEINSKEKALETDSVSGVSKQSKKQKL
T1 sequence (Q09028 whole entry partner): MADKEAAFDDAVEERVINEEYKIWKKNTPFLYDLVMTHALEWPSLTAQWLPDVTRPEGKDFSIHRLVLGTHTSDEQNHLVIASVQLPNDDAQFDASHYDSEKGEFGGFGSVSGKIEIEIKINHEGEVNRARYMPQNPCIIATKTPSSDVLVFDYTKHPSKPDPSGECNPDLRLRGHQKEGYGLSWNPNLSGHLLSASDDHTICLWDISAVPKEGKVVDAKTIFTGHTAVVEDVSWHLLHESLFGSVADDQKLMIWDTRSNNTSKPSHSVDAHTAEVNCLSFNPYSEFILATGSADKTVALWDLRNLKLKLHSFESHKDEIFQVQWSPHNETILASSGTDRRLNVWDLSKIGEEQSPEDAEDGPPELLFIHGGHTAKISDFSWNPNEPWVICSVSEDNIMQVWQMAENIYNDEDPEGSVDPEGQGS
T1 sequence (Q6ZN18 whole entry partner): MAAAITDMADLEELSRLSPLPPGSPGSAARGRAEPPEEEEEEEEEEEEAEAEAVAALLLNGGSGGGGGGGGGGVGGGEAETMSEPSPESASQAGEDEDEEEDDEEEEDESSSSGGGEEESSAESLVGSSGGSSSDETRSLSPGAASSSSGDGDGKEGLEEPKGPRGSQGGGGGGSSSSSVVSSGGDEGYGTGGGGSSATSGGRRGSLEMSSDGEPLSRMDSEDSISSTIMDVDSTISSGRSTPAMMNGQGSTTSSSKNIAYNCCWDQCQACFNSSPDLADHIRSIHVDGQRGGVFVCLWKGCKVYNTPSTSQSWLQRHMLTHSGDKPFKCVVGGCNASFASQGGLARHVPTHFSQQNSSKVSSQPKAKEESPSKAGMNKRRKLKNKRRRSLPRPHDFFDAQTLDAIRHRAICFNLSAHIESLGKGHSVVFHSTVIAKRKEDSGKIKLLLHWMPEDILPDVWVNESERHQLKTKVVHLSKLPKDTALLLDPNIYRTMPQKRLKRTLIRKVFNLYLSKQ

IC50 [nM] | SMILES
11.4 | CC=C(c1c(C)c(C(=O)NCc2c(OC)cc(C)[nH]c2=O)cc2c(-c3ccnc(N(C)C)c3)ccn12)N1CCOCC1 [compound 1, 1-(2-(dimethylamino)pyridin-4-yl)-N-((4-methoxy-6-methyl-2-oxo-1,2-dihydropyridin-3-yl)methyl)-6-methyl-5-(1-morpholinylpropyl-1-en-1-yl)indolizine-7-formamide]
4.91 | C=C(c1c(C)c(C(=O)NCc2c(OC)cc(C)[nH]c2=O)cc2c(-c3ccc(C)nn3)ccn12)N1CCN(CC(F)(F)F)CC1 [compound 3, N-((4-methoxy-6-methyl-2-oxo-1,2-dihydropyridin-3-yl)methyl)-6-methyl-1-(6-methylpyridazin-3-yl)-5-(1-(4-(2,2,2-trifluoroethyl)piperazin-1-yl)vinyl)indolizine-7-carboxamide]
6.73 | CNc1cc(-c2ccn3c(C(C)=C4CCN(CC(F)(F)F)CC4)c(C)c(C(=O)NCc4c(OC)cc(C)[nH]c4=O)cc23)ccn1 [compound 5, N-((4-methoxy-6-methyl-2-oxo-1,2-dihydropyridin-3-yl)methyl)-6-methyl-1-(2-(methylamino)pyridin-4-yl)-5-(1-(1-(2,2,2-trifluoroethyl)piperidin-4-alkenylene)ethyl)indolizine-7-carboxamide]
8.82 | COc1cc(C)[nH]c(=O)c1CNC(=O)c1cc2c(-c3ccnc(N(C)C)c3)ccn2c(C(C)=C2CCN(CC(F)(F)F)CC2)c1C [compound 4, 1-(2-(dimethylamino)pyridin-4-yl)-N-((4-methoxy-6-methyl-2-oxo-1,2-dihydropyridine-3-yl)methyl)-6-methyl-5-(1-(1-(2,2,2-trifluoroethyl)piperidin-4-alkenylene)ethyl)indolizine-7-formamide]
